Laboratory results as given in patent publication US6652835B1, “Targeting multimeric imaging agents through multilocus binding” (Epix Medical, Inc., priority 1999, dated 2003).
Several values for one entry are separate records, joined by “and”; a condition that tells them apart may be missing. Equal entries are not always repeated.

Experiments:
[1] = Relaxivity of the free agent in the absence of target (20 MHz, 37° C.); assay type: physicochemical; details: no target
Method: (§1) The compounds of the present invention were evaluated for relaxivity using a Bruker NMS-120 Minispec NMR spectrometer operating at 0.47 Tesla (20 MHz H-1 Larmor frequency) and 37° C. T1 of water protons was determined by an inversion recovery pulse sequence using the instrument's software. Relaxivity was determined in the presence of the target (typically 4.5% HSA) by preparing 4 individual samples. The first contained only 4.5% HSA in phosphate buffered saline (PBS), and the other three contained ca. 20, 30, and 40 μM Gd(III), respectively, in addition to 4.5% HSA in PBS. The samples are incubated at 37 degrees C. for at least 15 minutes to ensure temperature equilibration before the T1 measurement is performed. The Gd(III) content of the samples is determined by inductively coupled plasma—mass spectrometry (ICP-MS). The relaxivity (per Gd(III) ion) is determined by plotting the relaxation rate (1/T1) in s^−1 versus the Gd(III) concentration in mM. The slope of a linear fit to the data gives the relaxivity. The relaxivity of the compounds in the absence of target is also determined in an analogous manner, except there is no target present.

[2] = target: T1, Human Serum Albumin (HSA) (Homo sapiens, UniProt P02768); test: Percent binding to HSA (ultrafiltration); details: target HSA
Text: The extent of binding of a TBM to a target, such as HSA or fibrin, can be assessed by a variety of equilibrium binding methods. For example, binding to HSA can be measured by ultrafiltration. In a typical binding measurement using ultrafiltration, the targeting group is mixed with 4.5% weight/volume HSA in a pH 7.4 buffer. The sample is loaded into a commercially available centrifugation apparatus equipped with a 30 KDa molecular weight cutoff filter (Millipore Ultrafree MC Low Binding Regenerated Cellulose 30 KDa mol. wt. cutoff catalog #UFC3LTK00), permeable to the targeting group, but not HSA. A small portion (5-10%) of the sample volume is filtered by centrifugation at 2000×g for 20 min through the cutoff filter, and the concentration of unbound targeting group in the sample is measured in the filtrate. The concentration of species bound to the target under these conditions is determined in a separate experiment using e.g. ultrafiltration or equilibrium dialysis. Knowledge of the amount of species bound to the target, the relaxivity in the presence of the target, and the relaxivity in the absence of the target allows the calculation of the average bound relaxivity as described herein.

[3] = target: T1, Human Serum Albumin (HSA); test: Average bound relaxivity in the presence of 4.5% HSA (20 MHz, 37° C.); assay type: physicochemical; details: for R1bound/Gd^+3 mM^−1s^−1 (20 MHz) / Total R1bound mM^−1s^−1 (20 MHz): bound to HSA; for R1bound/Gd^+3 mM^−1s^−1 (20 MHz): per Gd(III); for Total R1bound mM^−1s^−1 (20 MHz): whole molecule
Text: To understand Table 1, it is important to define the extent to which a target-binding MRI contrast agent can achieve its maximum possible relaxivity. This maximum relaxivity for a particular contrast agent is approximately equal to the relaxivity of the molecule when bound to a target (R1bound), such as Human Serum Albumin (HSA). The average ? bound is a normalized measure of the average relaxivity for all bound species under a standard set of conditions (such as a specific target or protein concentration, drug concentration, temperature, etc.) that is weighted by the bound population of each species. Therefore, since the value of ? bound is a normalized quantity, comparisons of relaxivities can be made among different molecules in the bound state by comparing values for ? bound. Comparison of the calculated ? bound values provides a convenient method for comparing compounds irrespective of their affinities for a target.
Calculating the average ( ? bound) requires measuring the relaxivity of the free chelate (R1free) as well as the observed relaxivity (R1obs) and percent binding of the agent to a target solution typically containing 4.5% of the target, e.g., HSA. The R1obs is a mole fraction (x) weighted average of R1free and R1bound: [formula]
as §1
The concentration of species bound to the target under these conditions is determined in a separate experiment using e.g. ultrafiltration or equilibrium dialysis. Knowledge of the amount of species bound to the target, the relaxivity in the presence of the target, and the relaxivity in the absence of the target allows the calculation of the average bound relaxivity as described herein.

[4] = target: T2, clot containing human fibrin (Homo sapiens, UniProt P02671+P02675+P02679); test: Rabbit jugular vein clot model, MR imaging; assay type: in vivo; details: MR images after injection (FIG. 14)
T2 construct: host or cells: clot formed in the clamped rabbit jugular vein from added human fibrinogen and thrombin
T2 sequence (P02671 36-629 limits assumed): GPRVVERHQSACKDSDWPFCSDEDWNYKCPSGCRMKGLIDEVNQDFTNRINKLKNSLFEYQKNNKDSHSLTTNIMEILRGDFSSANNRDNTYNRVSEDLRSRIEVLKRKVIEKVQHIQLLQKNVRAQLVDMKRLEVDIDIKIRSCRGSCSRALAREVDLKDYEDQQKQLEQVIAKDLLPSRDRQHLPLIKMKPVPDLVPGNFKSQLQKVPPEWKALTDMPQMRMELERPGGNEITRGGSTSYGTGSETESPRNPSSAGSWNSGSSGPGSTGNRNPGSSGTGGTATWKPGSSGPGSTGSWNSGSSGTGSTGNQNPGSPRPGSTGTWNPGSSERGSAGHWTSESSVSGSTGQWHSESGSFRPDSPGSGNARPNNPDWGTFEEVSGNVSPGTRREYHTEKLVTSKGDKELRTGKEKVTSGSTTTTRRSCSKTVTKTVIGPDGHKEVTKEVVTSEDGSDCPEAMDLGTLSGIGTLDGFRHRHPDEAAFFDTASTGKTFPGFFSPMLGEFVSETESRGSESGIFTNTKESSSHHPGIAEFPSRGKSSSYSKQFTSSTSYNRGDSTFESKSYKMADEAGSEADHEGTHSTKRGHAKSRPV
T2 sequence (P02675 45-491 limits assumed): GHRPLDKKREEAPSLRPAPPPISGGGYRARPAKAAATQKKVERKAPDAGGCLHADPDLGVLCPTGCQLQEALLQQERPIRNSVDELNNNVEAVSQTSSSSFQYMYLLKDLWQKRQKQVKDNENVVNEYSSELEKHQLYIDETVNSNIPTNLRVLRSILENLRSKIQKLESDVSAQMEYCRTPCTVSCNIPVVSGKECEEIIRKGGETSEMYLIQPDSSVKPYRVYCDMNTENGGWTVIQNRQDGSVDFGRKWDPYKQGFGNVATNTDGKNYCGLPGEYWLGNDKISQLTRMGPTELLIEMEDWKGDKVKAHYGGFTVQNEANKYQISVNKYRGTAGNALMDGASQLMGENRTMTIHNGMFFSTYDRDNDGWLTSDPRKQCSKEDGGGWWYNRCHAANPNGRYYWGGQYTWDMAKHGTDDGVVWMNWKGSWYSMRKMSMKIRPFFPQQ
T2 sequence (P02679 27-437 isoform P02679-2 limits assumed): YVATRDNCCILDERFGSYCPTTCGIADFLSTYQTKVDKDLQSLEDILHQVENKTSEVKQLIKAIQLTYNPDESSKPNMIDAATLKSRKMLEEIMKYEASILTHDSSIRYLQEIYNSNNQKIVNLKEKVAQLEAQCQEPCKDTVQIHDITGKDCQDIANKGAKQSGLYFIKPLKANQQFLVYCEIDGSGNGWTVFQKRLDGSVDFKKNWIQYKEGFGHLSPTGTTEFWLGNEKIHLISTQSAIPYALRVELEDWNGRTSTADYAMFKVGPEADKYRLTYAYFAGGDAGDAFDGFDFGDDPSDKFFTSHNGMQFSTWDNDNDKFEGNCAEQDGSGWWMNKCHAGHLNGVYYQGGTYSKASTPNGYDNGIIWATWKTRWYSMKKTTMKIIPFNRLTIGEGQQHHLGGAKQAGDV
Method: One animal model that may be used is the rabbit jugular vein clot model in which the jugular vein is clamped. The vein is clamped at two locations, and the rabbit blood between the clamps is removed. Human fibrinogen, rabbit red blood cells and thrombin are added to the vein between the clamps to generate a clot containing human fibrin. The clot is typically aged for 30 minutes.
In the rabbit jugular model, a typical machine is a 1.5 Tesla using a spoiled gradient (SPGR) MRI at 36/5/30 deg). Alternatively, a 3D GRE 44/10/30 deg. method of imaging may be used with a 1.5 Tesla machine. Alternatively, IR 2000/10/700 methods may be employed with a 1.5 Tesla.
FIG. 14 is a reproduction of a color photograph of the images obtained in an experiment using the assay given in Example 1.

T1 sequence (P02768 25-609): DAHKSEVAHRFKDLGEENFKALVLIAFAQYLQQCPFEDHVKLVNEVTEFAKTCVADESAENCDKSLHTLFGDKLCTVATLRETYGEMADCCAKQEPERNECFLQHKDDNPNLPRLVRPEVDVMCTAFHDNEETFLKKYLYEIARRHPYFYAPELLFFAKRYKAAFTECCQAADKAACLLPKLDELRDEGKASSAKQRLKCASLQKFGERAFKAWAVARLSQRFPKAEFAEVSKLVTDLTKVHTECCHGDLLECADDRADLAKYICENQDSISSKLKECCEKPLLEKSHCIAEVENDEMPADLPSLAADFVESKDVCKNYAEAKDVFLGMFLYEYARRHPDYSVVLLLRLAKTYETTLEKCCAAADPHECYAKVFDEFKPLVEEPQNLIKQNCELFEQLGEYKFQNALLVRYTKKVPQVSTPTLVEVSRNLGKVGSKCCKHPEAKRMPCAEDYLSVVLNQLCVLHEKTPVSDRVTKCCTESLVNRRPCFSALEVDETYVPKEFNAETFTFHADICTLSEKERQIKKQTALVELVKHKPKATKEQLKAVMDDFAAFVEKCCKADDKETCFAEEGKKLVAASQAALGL

| SMILES | free relaxivity [1] [mM⁻¹ s⁻¹] | % Bound [2] [%] | ratio of R1bound to R1free ([3]; HSA) | R1bound/Gd^+3 mM^−1s^−1 (20 MHz) [3] | Total R1bound mM^−1s^−1 (20 MHz) [3] | fold increase in total relaxivity, two TBMs versus one TBM (M8-07) ([3]; HSA, relative to M8-07) [fold] | imaging of / binding to the clot [4] |
| --- | --- | --- | --- | --- | --- | --- | --- |
| Cc1cc(C)c(-c2ccc(CN(CCN(CCN(CCNC(=O)CNC(=O)CC(C(=O)[O-])N(CCN(CC(=O)[O-])CC(=O)[O-])CCN(CC(=O)[O-])CC(=O)[O-])C(=O)CNC(=O)CC(C(=O)[O-])N(CCN(CC(=O)[O-])CC(=O)[O-])CCN(CC(=O)[O-])CC(=O)[O-])C(=O)CNC(=O)CC(C(=O)[O-])N(CCN(CC(=O)[O-])CC(=O)[O-])CCN(CC(=O)[O-])CC(=O)[O-])C(=O)CNC(=O)CC(C(=O)[O-])N(CCN(CC(=O)[O-])CC(=O)[O-])CCN(CC(=O)[O-])CC(=O)[O-])cc2)c(C)c1.[Gd+3].[Gd+3].[Gd+3].[Gd+3] (stereo not drawn) [Compound M8-07] | 9.2 | 64.1 | 1.7 | 16.0 mM⁻¹ s⁻¹ and 16 mM⁻¹ s⁻¹ | 64.0 mM⁻¹ s⁻¹ and 64 mM⁻¹ s⁻¹ | – | – |
| Cc1cc(C)c(-c2ccc(CN(CCN(CCN(CCN(Cc3ccc(-c4c(C)cc(C)cc4C)cc3)C(=O)CNC(=O)CC(C(=O)[O-])N(CCN(CC(=O)[O-])CC(=O)[O-])CCN(CC(=O)[O-])CC(=O)[O-])C(=O)CNC(=O)CC(C(=O)[O-])N(CCN(CC(=O)[O-])CC(=O)[O-])CCN(CC(=O)[O-])CC(=O)[O-])C(=O)CNC(=O)CC(C(=O)[O-])N(CCN(CC(=O)[O-])CC(=O)[O-])CCN(CC(=O)[O-])CC(=O)[O-])C(=O)CNC(=O)CC(C(=O)[O-])N(CCN(CC(=O)[O-])CC(=O)[O-])CCN(CC(=O)[O-])CC(=O)[O-])cc2)c(C)c1.[Gd+3].[Gd+3].[Gd+3].[Gd+3] (stereo not drawn) [Compound M8-08] | 10.3 | 93.7 | 4.3 | 44.1 mM⁻¹ s⁻¹ | 176.5 mM⁻¹ s⁻¹ | 2.75 | – |
| CCCCc1ccc(C(=O)N(Cc2ccccc2)C2c3ccccc3CC2OP(=O)([O-])OCCC#CCN2CCN(C(=O)CNC(=O)CC(C(=O)[O-])N(CCN(CC(=O)[O-])CC(=O)[O-])CCN(CC(=O)[O-])CC(=O)[O-])CCN(C(=O)CNC(=O)CC(C(=O)[O-])N(CCN(CC(=O)[O-])CC(=O)[O-])CCN(CC(=O)[O-])CC(=O)[O-])CCN(C(=O)CNC(=O)CC(C(=O)[O-])N(CCN(CC(=O)[O-])CC(=O)[O-])CCN(CC(=O)[O-])CC(=O)[O-])CC2)cc1.[Gd+3].[Gd+3].[Gd+3] (stereo not drawn) [Compound M8-10] | – | 66.1 | – | 25.7 mM⁻¹ s⁻¹ | 77.1 mM⁻¹ s⁻¹ | – | – |
| O=C([O-])CN(CCN(CC(=O)[O-])CC(=O)O)CCN(CC(=O)[O-])CC(=O)O.[Gd+3] [Gd-DTPA, gadolinium diethylenetriaminepentaacetic acid] | – | – | – | – | – | – | does not bind |
